Among the data in US8580965B2, “Substituted sulfonamide compounds” (Gruenenthal GmbH, priority 2006, dated 2013) are inhibition values, retold here.

The target of experiment [1] is T1, human B1R receptor (bradykinin 1 receptor) (Homo sapiens, UniProt P46663).
T1 construct: host or cells: CHO K1 cells (hB1R cells)
T1 sequence (P46663 1-353): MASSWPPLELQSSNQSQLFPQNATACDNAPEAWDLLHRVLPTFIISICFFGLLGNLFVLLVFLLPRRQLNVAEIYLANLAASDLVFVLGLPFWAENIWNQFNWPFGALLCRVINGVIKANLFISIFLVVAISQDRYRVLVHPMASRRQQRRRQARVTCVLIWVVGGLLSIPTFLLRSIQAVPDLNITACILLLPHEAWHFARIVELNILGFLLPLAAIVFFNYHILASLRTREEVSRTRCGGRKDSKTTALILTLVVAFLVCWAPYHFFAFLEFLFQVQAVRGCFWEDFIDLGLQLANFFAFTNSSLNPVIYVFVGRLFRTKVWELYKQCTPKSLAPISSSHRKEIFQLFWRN
In words: FLIPR Ca2+ assay (Fluo-4) on CHO K1 cells stably transfected with the human B1R gene; % activation and % inhibition at 10 μM. The experiment is classed as cell-based. The following applies: CHO-K1, test substance 10 μM; CHO K1 hB1R cells; Ca2+ inflow after 0.5 nM Lys-Des-Arg9-bradykinin; read-out: B1R antagonism, human [10 μM] % inhibition. The method in brief: (§1)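 Fluo-4 Ca2+ flux on FLIPR in stable hB1R or rB1R CHO K1 lines, two additions. Agonism: 10 µM compound versus 0.5 nM Lys-Des-Arg9-BK (human) or 100 nM Des-Arg9-BK (rat); antagonism: same agonists applied 10 min later, suppression expressed against maximum achievable inhibition.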

For experiment [2], the target named is T2, B1R receptor of the rat (bradykinin 1 receptor) (Rattus norvegicus, UniProt P97583).
T2 construct: host or cells: CHO K1 cells (rB1R cells)
T2 sequence (P97583 1-337): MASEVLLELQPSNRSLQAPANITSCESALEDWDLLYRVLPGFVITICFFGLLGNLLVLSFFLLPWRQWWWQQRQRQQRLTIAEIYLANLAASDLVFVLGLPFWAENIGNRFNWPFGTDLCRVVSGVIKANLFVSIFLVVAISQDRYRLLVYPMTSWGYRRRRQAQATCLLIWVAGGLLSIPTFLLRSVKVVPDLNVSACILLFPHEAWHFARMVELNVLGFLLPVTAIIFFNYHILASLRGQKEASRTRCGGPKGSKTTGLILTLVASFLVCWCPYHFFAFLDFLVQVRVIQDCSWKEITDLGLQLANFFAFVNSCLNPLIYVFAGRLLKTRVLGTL
Briefly: FLIPR Ca2+ assay (Fluo-4) on CHO K1 cells stably transfected with the B1R gene of the rat; % activation and % inhibition at 10 μM. The experiment is classed as cell-based. The following applies: CHO-K1, test substance 10 μM; CHO K1 rB1R cells; Ca2+ inflow after 100 nM Des-Arg9-bradykinin; read-out: B1R antagonism, rat [10 μM] % inhibition. The method in brief:
as §1

The inhibition is the relative decrease from the control value, in per cent. As to `O=C(COC1CCN(S(=O)(=O)c2cccc(C(F)(F)F)c2)C1)N1CCC(O)(c2ccccn2)CC1` (centres unmarked) [Example 59, 1-(4′-hydroxy-3′,4′,5′,6′-tetrahydro-2′H-[2,4′]bipyridinyl-1′-yl)-2-[1-(3-trifluoromethyl-phenylsulfonyl)-pyrrolidin-3-yloxy]-ethanone], the inhibition at 10 µM was -24% in experiment [1] and 16.6% in experiment [2].

As for `Cc1ccc(F)cc1S(=O)(=O)N(C)CCOCC(=O)N1CCC(O)(c2ccc(Cl)cc2)CC1` [Example 61, N-(2-(2-(4-(4-chlorophenyl)-4-hydroxypiperidin-1-yl)-2-oxoethoxy)ethyl)-5-fluoro-N,2-dimethylphenylsulfonamide], the inhibition at 10 µM was determined as 56.2% in experiment [1] and 86.4% in experiment [2].

For the compound `Cc1ccc(F)cc1S(=O)(=O)N(C)CCOCC(=O)N1CCC(O)(Cc2ccccc2)CC1` [Example 62, N-{2-[2-(4-benzyl-4-hydroxy-piperidin-1-yl)-2-oxo-ethoxy]-ethyl}-5-fluoro-2,N-dimethyl-phenylsulfonamide], the inhibition at 10 µM in experiment [1] came out at 7.47%; in experiment [2], 22.9%.

For the compound `O=C(COCC1CCCCN1S(=O)(=O)c1cccc2ccccc12)N1CCC(O)(c2ccc(Cl)cc2)CC1` (centres unmarked) [Example 63, 1-(4-(4-chlorophenyl)-4-hydroxypiperidin-1-yl)-2-((1-(naphthalen-1-ylsulfonyl)piperidin-2-yl)methoxy)ethanone], the inhibition at 10 µM in experiment [1] is 84.8%; in experiment [2] it was 91.8%.

On to `O=C(COCC1CCCCN1S(=O)(=O)c1cccc2ccccc12)N1CCC(O)(Cc2ccccc2)CC1` (centres unmarked) [Example 64, 1-(4-benzyl-4-hydroxy-piperidin-1-yl)-2-[1-(naphthalene-1-sulfonyl)-piperidin-2-ylmethoxy]-ethanone], for which the inhibition at 10 µM in experiment [1] is 69.2%; in experiment [2], 64.2%.

`O=C(COCC1CCCCN1S(=O)(=O)c1cccc(C(F)(F)F)c1)N1CCC(O)(Cc2ccccc2)CC1` (centres unmarked) [Example 65, 1-(4-benzyl-4-hydroxy-piperidin-1-yl)-2-[1-(3-trifluoromethyl-phenylsulfonyl)-piperidin-2-ylmethoxy]-ethanone]: the inhibition at 10 µM in experiment [1] turned out to be 21%; in experiment [2] it was 25.8%.

For the compound `Cc1cc(C)c(S(=O)(=O)N2CCCCC2COCC(=O)N2CCC(O)(c3ccc(Cl)cc3)CC2)c(C)c1` (centres unmarked) [Example 66, 1-(4-(4-chlorophenyl)-4-hydroxypiperidin-1-yl)-2-((1-(mesitylsulfonyl)piperidin-2-yl)methoxy)ethanone], the values for the inhibition at 10 µM in experiment [1] and in experiment [2] were 84.5% and 99.2%, respectively.

Take `Cc1cc(C)c(S(=O)(=O)N2CCCCC2COCC(=O)N2CCC(O)(Cc3ccccc3)CC2)c(C)c1` (centres unmarked) [Example 67, 1-(4-benzyl-4-hydroxy-piperidin-1-yl)-2-[1-(2,4,6-trimethyl-phenylsulfonyl)-piperidin-2-ylmethoxy]-ethanone]: the inhibition at 10 µM in experiment [1] was found to be 55.4%; in experiment [2] it was 86.5%.

Take `Cc1cc(C)c(S(=O)(=O)N2CCCCC2COCC(=O)N2CCC(O)(c3cccnc3)CC2)c(C)c1` (centres unmarked) [Example 68, 1-(4′-hydroxy-3′,4′,5′,6′-tetrahydro-2′H-[3,4′]bipyridinyl-1′-yl)-2-[1-(2,4,6-trimethyl-phenylsulfonyl)-piperidin-2-ylmethoxy]-ethanone]: the inhibition at 10 µM in experiment [1] came to 74.9%; in experiment [2] it was 79%.

Take `O=C(COCc1sccc1N(Cc1ccccc1)S(=O)(=O)c1ccc(Cl)c(Cl)c1)N1CCC(O)(Cc2ccccc2)CC1` [Example 69, N-benzyl-N-{2-[2-(4-benzyl-4-hydroxy-piperidin-1-yl)-2-oxo-ethoxymethyl]-thiophen-3-yl}-3,4-dichloro-phenylsulfonamide]: the values for the inhibition at 10 µM in experiment [1] and in experiment [2] were 9.45% and 28.4%, respectively.

`CN(CCOCC(=O)N1CCC(O)(c2ccccn2)CC1)S(=O)(=O)c1cc(F)cc(F)c1` [Example 70, 3,5-difluoro-N-{2-[2-(4′-hydroxy-3′,4′,5′,6′-tetrahydro-2′H-[2,4′]bipyridinyl-1′-yl)-2-oxo-ethoxy]-ethyl}-N-methyl-phenylsulfonamide]: the figures for the inhibition at 10 µM in experiment [1] and in experiment [2] were 7.12% and -12.2%, respectively.

For `CN(CCOCC(=O)N1CCC(O)(c2ccccn2)CC1)S(=O)(=O)c1cc(F)ccc1F` [Example 71, 2,5-difluoro-N-{2-[2-(4′-hydroxy-3′,4′,5′,6′-tetrahydro-2′H-[2,4′]bipyridinyl-1′-yl)-2-oxo-ethoxy]-ethyl}-N-methyl-phenylsulfonamide], the inhibition at 10 µM was -0.46% in experiment [1] and 4.46% in experiment [2].

On to `O=C(COCC1Cc2ccccc2CN1S(=O)(=O)c1ccc(F)cc1)N1CCC(O)(c2ccccn2)CC1` (centres unmarked) [Example 72, 2-[2-(4-fluoro-phenylsulfonyl)-1,2,3,4-tetrahydro-isoquinolin-3-ylmethoxy]-1-(4′-hydroxy-3′,4′,5′,6′-tetrahydro-2′H-[2,4′]bipyridinyl-1′-yl)-ethanone], for which the inhibition at 10 µM in experiment [1] worked out at 3.33%; in experiment [2], 18.7%.

As for `O=C(COCC1Cc2ccccc2CN1S(=O)(=O)c1ccccc1)N1CCC(O)(c2ccccn2)CC1` (centres unmarked) [Example 73, 2-(2-phenylsulfonyl-1,2,3,4-tetrahydro-isoquinolin-3-ylmethoxy)-1-(4′-hydroxy-3′,4′,5′,6′-tetrahydro-2′H-[2,4′]bipyridinyl-1′-yl)-ethanone], the values for the inhibition at 10 µM in experiment [1] and in experiment [2] were -7.27% and 14.4%, respectively.

For `COc1ccc(S(=O)(=O)N2CCC(OCC(=O)N3CCC(O)(c4ccccn4)CC3)(c3ccccc3)CC2)cc1` [Example 74, 1-(4′-hydroxy-3′,4′,5′,6′-tetrahydro-2′H-[2,4′]bipyridinyl-1′-yl)-2-[1-(4-methoxy-phenylsulfonyl)-4-phenyl-piperidin-4-yloxy]-ethanone], the inhibition at 10 µM is -7.3% in experiment [1] and -3.17% in experiment [2].

For `O=C(COCC1Cc2ccccc2CN1S(=O)(=O)c1ccc(F)cc1)N1CCC(O)(Cc2ccccc2)CC1` (centres unmarked) [Example 75, 1-(4-benzyl-4-hydroxy-piperidin-1-yl)-2-[2-(4-fluoro-phenylsulfonyl)-1,2,3,4-tetrahydro-isoquinolin-3-ylmethoxy]-ethanone], the inhibition at 10 µM in experiment [1] is 11%; in experiment [2], 19.2%.

Regarding `O=C(COCC1Cc2ccccc2CN1S(=O)(=O)c1ccccc1)N1CCC(O)(Cc2ccccc2)CC1` (centres unmarked) [Example 77, 2-(2-phenylsulfonyl-1,2,3,4-tetrahydro-isoquinolin-3-ylmethoxy)-1-(4-benzyl-4-hydroxy-piperidin-1-yl)-ethanone], the inhibition at 10 µM in experiment [1] was 13.3%; in experiment [2] it was -0.12%.

For `O=C(COCC1Cc2ccccc2CN1S(=O)(=O)c1ccc(Cl)c(Cl)c1)N1CCC(O)(c2ccccc2)CC1` (centres unmarked) [Example 78, 2-((2-(3,4-dichlorophenylsulfonyl)-1,2,3,4-tetrahydroisoquinolin-3-yl)methoxy)-1-(4-hydroxy-4-phenylpiperidin-1-yl)ethanone], the inhibition at 10 µM in experiment [1] was 13.7%; in experiment [2], 12.7%.

Regarding `O=C(COCC1Cc2ccccc2CN1S(=O)(=O)c1ccc(Cl)cc1Cl)N1CCC(O)(c2ccc(Cl)cc2)CC1` (centres unmarked) [Example 79, 1-(4-(4-chlorophenyl)-4-hydroxypiperidin-1-yl)-2-((2-(2,4-dichlorophenylsulfonyl)-1,2,3,4-tetrahydroisoquinolin-3-yl)methoxy)ethanone], the results for the inhibition at 10 µM in experiment [1] and in experiment [2] were 47.3% and 70.7%, respectively.

For `O=C(COCC1Cc2ccccc2CN1S(=O)(=O)c1ccc(Cl)cc1Cl)N1CCC(O)(c2ccccc2)CC1` (centres unmarked) [Example 80, 2-((2-(2,4-dichlorophenylsulfonyl)-1,2,3,4-tetrahydroisoquinolin-3-yl)methoxy)-1-(4-hydroxy-4-phenylpiperidin-1-yl)ethanone], the figures for the inhibition at 10 µM in experiment [1] and in experiment [2] were 62.3% and 82.5%, respectively.

Consider `O=C(COCC1Cc2ccccc2CN1S(=O)(=O)c1ccc(Cl)cc1Cl)N1CCC(O)(Cc2ccccc2)CC1` (centres unmarked) [Example 81, 1-(4-benzyl-4-hydroxy-piperidin-1-yl)-2-[2-(2,4-dichloro-phenylsulfonyl)-1,2,3,4-tetrahydro-isoquinolin-3-ylmethoxy]-ethanone], for which the inhibition at 10 µM in experiment [1] was found to be 32.9%; in experiment [2] it was 62.8%.

As for `COc1ccc(S(=O)(=O)N2CCC(OCC(=O)N3CCC(O)(Cc4ccccc4)CC3)(c3ccccc3)CC2)cc1` [Example 82, 1-(4-benzyl-4-hydroxy-piperidin-1-yl)-2-[1-(4-methoxy-phenylsulfonyl)-4-phenyl-piperidin-4-yloxy]-ethanone], the inhibition at 10 µM turned out to be 9.32% in experiment [1] and 17.9% in experiment [2].
